Experimental findings from patent US9221875B2, “Amphiphilic peptides for treatment of keratitis” (Agency for Science, Technology and Research, priority 2013, dated 2015) are described below.

Values after ≈ are worked out from the molar mass of the structure shown. Where two headings read alike, the source gives them in different places. Peptide text beside a SMILES is read from it.

For series [1], the system named is 5 microorganisms tested (S. epidermidis, S. aureus, E. coli, P. aeruginosa, C. albicans). Nature of the series: Mean MIC over the panel and selectivity index (Example 1). It counts as cell-based. The method, then: Red blood cells suspension incubated with PBS was used as negative control.
Another series has as its system F. solani. It counts as cell-based. As to conditions: 24 h. The method, then:
(§1) The MICs of peptides were determined against the fungi C. albicans (American Type Culture Collection, ATCC) and F. solani (ATCC) by the broth microdilution method. […] F. solani, were cultured on sabouraud dextrose agar plates in incubator at 37° C. To collect conidia following incubation, conidia of F. solani species were harvested and standardized to 1×10^8 spores/ml before performing the experiments. Sabouraud dextrose broth (90 μL) was added to the wells of culture plates. […] The plates were incubated at 37° C. and examined macroscopically after 24 h for the growth of F. solani. Appropriate control wells without any treatment were included in the study. Peptide were considered to be active if the wells appeared clear without any visible growth of F. solani, and the results were expressed as MIC. The assay was performed in four replicates for each concentration.

The subject of series [2] is C. albicans. Put plainly: In vitro killing kinetics. It counts as cell-based, Candida albicans. The protocol: The killing kinetics test was performed to evaluate the antimicrobial activities of peptides against C. albicans. Yeast solution was re-suspended in YMB (Difco) to achieve from 10^5 to 10^6 CFU mL^−1. […] Each dilution (20 μL) was plated on agar plate, and incubated 2 days. Surviving colonies were counted after incubation. An untreated inoculum group was used as a negative control. Tests were conducted in triplicates, and the results were presented as killing efficiency (%).

Series [3] is described as follows: Stability testing, autoclave and 6 weeks at room temperature, MALDI-TOF MS. Type of series: physicochemical. The note with it: 121° C. 15 min, 2 mg/mL, no protection from light. The method, then: Peptides 1 and 2 were dissolved in HPLC-grade water at 2 mg/mL, subjected to a standard steam sterilization autoclave cycle at 121° C. for 15 min, and allowed to stand at room temperature for a period of 6 weeks. The integrity of the peptides was determined by evaluating their molecular weights via MALDI-TOF MS before and after treatment.

In a further series the test system is C. albicans biofilm. Put plainly: Biofilm biomass assay, crystal violet. The note with it: 500 mg/L, 24 h. It counts as cell-based, Candida albicans. The protocol:
The biomass of the biofilms was estimated by a crystal violet staining assay. Briefly, the formed biofilms were first treated with the peptide for 24 h as described above. After aspirating the culture medium, the biofilms were rinsed once with PBS, fixed with methanol for 15 min at room temperature and stained with 100 μL of 0.1% (weight by volume) crystal violet for 10 min. The excess crystal violet dye was removed by rinsing the wells with DI water five times. The dye that is associated with the biofilm was extracted using 100 μL of 33% glacial acetic acid per well, and […] aliquot from each well was transferred to a new 96-well plate for quantification of absorbance at a wavelength of 570 nm using a microplate reader (TECAN, Switzerland). The relative amount of biomass remaining after peptide treatment was expressed as a percentage of the control treated with broth containing 10 vol % of water. Data represented mean±standard deviations of 4 replicates for each concentration.

Series [4] has as its system S. epidermidis. The note with it: 18 h.
Series [5] has as its system S. aureus. As to conditions: 18 h.
The test system of series [6] is E. coli. The note with it: 18 h.
Series [7] relates to P. aeruginosa. As to conditions: 18 h.
Series [8] relates to C. albicans. The note with it: 42 h.
The subject of the next series is C. albicans keratitis. Nature of the series: Contact lens-associated C. albicans keratitis mouse model.
The next series deals with rabbit red blood cells. It counts as cell-based. The note with it: red cells of rabbit, 1 h.
Series [9] deals with C. albicans. It counts as cell-based, Candida albicans. As to conditions: 42 h. The protocol:
as §1

The test system of series [10] is S. epidermidis. As to conditions: 18 h. The source holds these as a separate data set.
Series [11] has as its system S. aureus. The note with it: 18 h. This is another data set of the same source.
For series [12], the system named is E. coli. The note with it: 18 h. The source holds these as a separate data set.
The test system of series [13] is P. aeruginosa. As to conditions: 18 h. This is another data set of the same source.
The test system of series [14] is C. albicans.
Setting [15] is: topical eye drops, peptides 3000 mg/L, amphotericin B 1000 mg/L.

As to `CC[C@H](C)[C@H](N)C(=O)N[C@@H](CCCCN)C(=O)N[C@H](C(=O)N[C@@H](CCCCN)C(=O)N[C@H](C(=O)N[C@@H](CCCCN)C(=O)N[C@H](C(=O)N[C@@H](CCCCN)C(N)=O)[C@@H](C)CC)[C@@H](C)CC)[C@@H](C)CC` [(IKIK)2-NH2] (H-IKIKIKIK-NH2; N-terminus assumed), in [1], the “GM, geometric mean of MIC values for the 5 microorganisms tested” value is 38.3 µg/mL. The “MIC F. solani” value in the series with F. solani was 31.3 µg/mL (≈ 31.9 µM). In addition, in the series on C. albicans [2] (at 2×MIC and 4×MIC), the “time after which most fungi were killed” value amounted to 1 h. In addition, the “time after which most fungi were killed” value in the series with C. albicans [2] (at MIC) worked out at 4 h. In addition, the “molecular weight after autoclaving and 6 weeks at room temperature in water” value in series [3] is recorded as “remained unchanged with no degradation products observed”. The “biomass of C. albicans biofilm” value with C. albicans biofilm is reported as “decreased significantly”. In the series with S. epidermidis [4], the “MIC S. epidermidis” value turned out to be 2.0 µg/mL (≈ 2.04 µM). Moreover, the “MIC S. aureus” value in the series with S. aureus [5] is 125 µg/mL (≈ 127 µM). The “MIC E. coli” value with E. coli [6] worked out at 31.3 µg/mL (≈ 31.9 µM). Besides, in the series with P. aeruginosa [7], the “MIC P. aeruginosa” value turned out to be 31.3 µg/mL (≈ 31.9 µM). In the series on C. albicans [8], the “MIC C. albicans” value turned out to be 2.0 µg/mL (≈ 2.04 µM). The “fungal cells eradicated from the biofilms compared to the untreated control group” value in the series with C. albicans keratitis (C. albicans counts in mice cornea, agar plating) is approximately 90%. For the same compound, in the series with C. albicans keratitis (setting [15]), the “depth of hyphal invasion into the cornea, PAS histology” value is “reduced the maximal depth of hyphal invasion” and the “resolution of the keratitis infection (eye appearance)” value is “significant resolution of the keratitis infection”. Moreover, in the series on C. albicans keratitis (topical eye drops, peptides 3000 mg/L, amphotericin B 1000 mg/L, P<0.01), the “clinical scores of mice corneas (slit lamp)” value is “significantly lower than that in the control group”.

With `CC[C@H](C)[C@H](N)C(=O)N[C@H](C(=O)N[C@@H](CCCNC(=N)N)C(=O)N[C@@H](CCCCN)C(=O)N[C@H](C(=O)N[C@H](C(=O)N[C@@H](CCCNC(=N)N)C(=O)N[C@@H](CCCCN)C(N)=O)[C@@H](C)CC)[C@@H](C)CC)[C@@H](C)CC` [Control-all L] (H-IIRKIIRK-NH2; N-terminus assumed), the “HC10, haemolysis concentration 10%: lowest peptide concentration that induces ≧10% haemolysis” value in the series on rabbit red blood cells is more than 2000 mg/L. Further, the entries for the “MIC C. albicans” value in the series on C. albicans [9] and against C. albicans [14] were more than 500 µg/mL and 500 µg/mL (≈ 482 µM), respectively. In addition, the “MIC F. solani” value in the series on F. solani is more than 500 µg/mL. Besides, the “MIC S. epidermidis” value with S. epidermidis [10] is more than 500 µg/mL. Moreover, the “MIC S. aureus” value with S. aureus [11] is more than 500 µg/mL. Further, in the series on E. coli [12], the “MIC E. coli” value is more than 500 µg/mL. Besides, in the series on P. aeruginosa [13], the “MIC P aeruginosa” value was more than 500 µg/mL.
